Experimental data published in US20160007585A1, “INSECT CONTROL DEVICE” (Clarke Mosquito Control Products, Inc., priority 2014, published 2016).

The molecules below were run on Anopheles gambiae (assay: Attraction tests in outdoor screenhouses: mosquitoes caught in MM-X or BG Sentinel traps baited with plant-based volatile organic compounds). Conditions: single compounds suspended in mineral oil; 300-400 released.
Format: in vivo
Procedure: Attraction tests were conducted in two sizes of outdoor screenhouses (˜5.5×7 m and 11×7 m, each>3 m high) at the Mbita research station (Odhiambo Campus, Kenya) of the International Centre of Insect Physiology & Ecology (ICIPE). The screenhouses provided a semi-natural physical environment that allowed experimental control over mosquito sample size and recovery of marked and/or released mosquitoes. It was noted that fluctuations of weather conditions would cause variations in flight behavior from night to night, affecting attraction to volatile organic compounds. The walls and ceiling were lined with netting to reduce interference from ants and spiders and to prevent mosquitoes from aggregating in the vaulted ceiling. The floor was a bed of sand, dampened daily. On the floor at each corner of the screenhouse, dampened pots served as resting harborages, which the mosquitoes typically entered at dawn. When local potted plants were included in the environment, they were spaced throughout the floor.
Tested mosquitoes were the Mbita strain of Anopheles gambiae, colonized locally about 14 years ago, but with infusions of field material in some subsequent years, to maintain genetic diversity. Adults emerging each night from daily collections of pupae were fed water only and were tested in the screenhouses the following night. At this age, both sexes still have adequate deposits of somatic energy from larval feeding but will die during the following 1.5 days without nutrients. Before sunset, the volatile organic compounds baits were installed in mosquito traps, their fans were turned on, and the mosquitoes were released from a small cage prepared for that purpose.
Attraction was measured as the number of mosquitoes caught in MM-X or BG Sentinel traps baited with plant-based volatile organic compounds. The volatile organic compounds were prepared as individual compounds suspended in mineral oil, which controlled release rate according to dosage (concentration) while also retarding release rate of all compounds. Each compound was released separately from other compounds when more than one was released simultaneously. The oil-volatile organic compound suspensions were applied to two different types of release substrates: long nylon fabric strips in the exhaust tube of the trap, and short cotton wicks suspended in a wire basket beneath the exhaust tube. […] As an example of the tested volatile organic compounds, the release profiles of hexanol and phenylacetaldehyde (suspended in hexane or mineral oil, applied to nylon sock or cotton wick) as measured in a MM-X trap is shown in FIGS. 19a and 19b, respectively. The release profiles of hexanol, linalool oxide, ocimene, pinene, and 6-methyl-5-hepten-2-one are similar to phenylacetaldehyde.
The layout of traps was designed to maximize discrimination among traps releasing different plant-based volatile organic compounds or releasing none (the blank control). The small screenhouses contained 2 traps, positioned diagonally. The large screenhouses contained 4 traps. In both sizes, the traps were near the corners, but not so close to the netting walls as to interfere with mosquito flight around the traps or the free flow of the odor plume from the traps. For replicates of each test, the positions of the traps were rotated, to minimize positional bias for one of these variables: a particular compound, particular dose of a compound, or particular combination of several compounds or their proportions. In early tests, a blank trap was always included. But after establishing that a blank trap never caught more than 10 mosquitoes, out of 300-400 released, blank traps were usually replaced by one with a bait using volatile organic compounds. The number trapped out of the total number released, expressed as a percentage, was seldom calculated, because of the large and variable numbers of mosquitoes unaccounted for by trap and aspirator recapture. […]

Row | Molecule | attraction score (number of mosquitoes caught in baited trap), in words
1 | O=CCc1ccccc1 [phenylacetaldehyde] | weak or mediocre
2 | C=CC(C)(O)CCC=C(C)C (stereo not drawn) [linalool] | in higher dosages (and therefore higher release rates) gave higher attraction scores
3 | CCOC(=O)Cc1ccccc1 [ethylphenylacetate] | in higher dosages (and therefore higher release rates) gave higher attraction scores
4 | CCCCCCO [Hexanol, hexanol] | good scores even at low dosages, with little or no improvement at higher doses
5 | caryophyllene | in higher dosages (and therefore higher release rates) gave higher attraction scores
6 | C=CC(C)=CCC=C(C)C [ocimene] | in higher dosages (and therefore higher release rates) gave higher attraction scores
